Test results as given in article PMC4937426, “Dcsbis (PA2771) from Pseudomonas aeruginosa is a highly active diguanylate cyclase with unique activity regulation” (Scientific Reports, 2016).

Tests used:
[1] = biological target: T1, Dcsbis-GGDEF; Dcsbis (173-341) (Pseudomonas aeruginosa, UniProt Q9I072); experiment: X-ray crystal structure, […] Å; assay type: binding; details: I-site; two mutually intercalated c-di-GMP molecules bridging a GGDEF dimer; Arg251, Asp254, Arg271, Arg282
T1 construct: gene PA2771
T1 sequence (Q9I072 entry or part of it): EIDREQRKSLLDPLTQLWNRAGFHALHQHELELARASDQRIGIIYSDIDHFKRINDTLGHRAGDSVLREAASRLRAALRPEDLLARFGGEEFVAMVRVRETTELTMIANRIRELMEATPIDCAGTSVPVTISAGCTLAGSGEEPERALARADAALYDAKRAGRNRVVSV

[2] = biological target: T2, Dcsbis (PA2771), full-length (Pseudomonas aeruginosa, UniProt Q9I072); experiment: coupled spectrophotometric pyrophosphate assay, Lineweaver-Burk with […] c-di-GMP; assay type: biochemical; details: GTP substrate; product inhibition, mainly competitive; Ki not given
T2 construct: homodimer
T2 sequence (Q9I072 entry or part of it): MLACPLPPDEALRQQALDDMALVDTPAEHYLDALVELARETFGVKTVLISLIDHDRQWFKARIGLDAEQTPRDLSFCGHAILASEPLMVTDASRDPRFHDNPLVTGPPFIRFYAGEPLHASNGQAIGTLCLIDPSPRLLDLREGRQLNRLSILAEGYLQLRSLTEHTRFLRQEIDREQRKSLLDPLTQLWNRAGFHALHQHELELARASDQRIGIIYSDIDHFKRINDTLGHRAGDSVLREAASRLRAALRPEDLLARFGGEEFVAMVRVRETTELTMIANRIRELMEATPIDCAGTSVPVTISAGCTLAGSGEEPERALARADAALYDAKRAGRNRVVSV

[3] = biological target: WspR (Pseudomonas aeruginosa, UniProt Q9HXT9); experiment: coupled spectrophotometric pyrophosphate assay; assay type: biochemical; details: turnover only, same molar concentration as Dcsbis
WspR, sequence (Q9HXT9 entry or part of it): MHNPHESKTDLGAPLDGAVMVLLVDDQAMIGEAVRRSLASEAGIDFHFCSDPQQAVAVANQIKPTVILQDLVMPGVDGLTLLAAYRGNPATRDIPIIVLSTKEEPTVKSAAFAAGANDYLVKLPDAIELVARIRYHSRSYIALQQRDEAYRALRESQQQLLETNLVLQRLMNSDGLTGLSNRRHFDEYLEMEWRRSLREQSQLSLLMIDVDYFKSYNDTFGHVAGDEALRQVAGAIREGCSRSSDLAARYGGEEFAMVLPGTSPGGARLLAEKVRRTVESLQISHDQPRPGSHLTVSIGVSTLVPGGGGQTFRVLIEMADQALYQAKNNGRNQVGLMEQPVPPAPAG

[4] = biological target: T1, Dcsbis-GGDEF; Dcsbis (173-341); experiment: coupled spectrophotometric pyrophosphate assay; assay type: biochemical; details: turnover only (residual activity)
[5] = test system: Nc1nc2c(ncn2[C@@H]2O[C@H](COP(=O)(O)OP(=O)(O)OP(=O)(O)O)[C@@H](O)[C@H]2O)c(=O)[nH]1; experiment: purified protein; details: without c-di-GMP; 128-512 μM GTP

`Nc1nc2c(ncn2[C@@H]2O[C@@H]3COP(=O)(O)O[C@H]4[C@@H](O)[C@H](n5cnc6c(=O)[nH]c(N)nc65)O[C@@H]4COP(=O)(O)O[C@H]3[C@H]2O)c(=O)[nH]1` [c-di-GMP] was tested, and the “X-ray crystal structure, 2.5 Å” value [1] was “This extra density may be explained by building in two mutually intercalated c-di-GMP molecules” and the “coupled spectrophotometric pyrophosphate assay, Lineweaver-Burk with 50 μM c-di-” value [2] was “The greatly increased Km suggests that c-di-GMP mainly binds to the active site”.
With `Nc1nc2c(ncn2[C@@H]2O[C@H](COP(=O)(O)OP(=O)(O)OP(=O)(O)O)[C@@H](O)[C@H]2O)c(=O)[nH]1` [GTP] the “coupled spectrophotometric pyrophosphate assay” value [3] was “DGC activity assays were performed for the three proteins at the same molar concentration” and the “coupled spectrophotometric pyrophosphate assay” value [4] was “the GGDEF domain of Dcsbis, compared with the full-length Dcsbis, exhibited only residual DGC activity”.
For “Dcsbis (PA2771), full-length (Pseudomonas aeruginosa PAO1)”, the Km [5] was 88 µM.
